From patent US20110184018A1, “METHOD FOR TREATING PERIPHERAL NEUROPATHIC PAIN” (LOHOCLA RESEARCH CORPORATION, priority 2005, published 2011)

Columns and labels:
[1] = molecular target: T1, cannabinoid receptor 1 (CB1) (Homo sapiens, UniProt P21554); assay: Displacement of [3H]CP55940 from CB1 receptors expressed in HEK293 cells; assay type: binding; conditions: [3H]CP55940 displacement, Cheng-Prusoff
T1 construct: expressed in transfected cells; host or cells: HEK293 cells
From the text: The cannabinoid receptor 1 (CB1) is a G-protein coupled receptor (GPCR), which can modulate the enzymatic activity of adenylyl cyclase (AC), inhibit calcium influx into neurons and increase neuronal potassium permeability. The CB1 receptors have been reported to be intimately involved in the progression and control of chronic pain. The CB1 receptors reportedly are involved in both the amelioration of anxiety and depression and may also be important in cognitive function and eating behavior. The interaction of a chemical entity with a CB1 receptor can be measured by the binding of selective radioligands to the native receptor or a CB1 receptor expressed in model cell systems. To ascertain the extent to which a non-radioactive ligand binds to a CB1 receptor the displacement of the radioactive CB1 selective ligand with DCUK-OEt was performed. The methods of assay and calculations for binding constants can be accessed, for example, on the PDSP website (pdsp(dot)med(dot)unc(dot)edu/indexR(dot)html). For binding of DCUK-OEt to the CB1 receptor, the displacement of the CB1 selective radioligand [^3H] CP55940 from CB1 receptors expressed in HEK293 cells was monitored. The log IC50 was determined from the displacement data, and the Ki values for DCUKA and DCUK-OEt were calculated using the Cheng-Prusoff equation.

[2] = Plasma and brain levels after oral administration of DCUK-OEt; assay type: in vivo; conditions: rat, 200 mg/kg DCUK-OEt emulsion by oral gavage
Description: Oral administration has been the major route of drug administration for the treatment of many diseases. […] Groups of rats were administered 200 mg/kg DCUK-OEt prepared as an emulsion in gelatin:canola oil (50:50) by oral gavage and sacrificed at 0.25, 0.5, 1, 1.5, 2, 4, 6, and 8 hours following administration, in order to collect the blood and brains for analysis. Plasma and brain levels of DCUKA and DCUK-OEt were analyzed by liquid chromatographic separation and mass spectrometric detection. Orally administered DCUK-OEt was converted to DCUKA by plasma and brain carboxylesterases. Peak levels of plasma DCUK-OEt were reached by about 1 hour post-administration, and fell to low levels by about 2 hours. DCUKA plasma levels peaked at about 2 hours and then fell off slowly over the next 4 hours. Brain DCUK-OEt levels peak at about 1 hour post-administration.
Oral administration. Following overnight food deprivation, groups of 3 rats were administered 200 mg/kg DCUK-OEt by oral gavage (40 mg/mL DCUK-OEt at 5 mL/kg body weight). Groups of rats were anesthetized and sacrificed by decapitation at 0.25, 0.5, 1, 1.5, 2, 4, 6, and 8 hours post-administration. Trunk blood was collected into tubes containing K2EDTA anticoagulant and brains were removed, washed thoroughly with 0.9% NaCl, and frozen on dry ice. Blood samples were centrifuged at 4000 rpm for 10 minutes. Plasma supernatant was removed and frozen at −80° C. until the time of the assay.
Liquid chromatographic-mass spectrometric determination of plasma and brain DCUKA and DCUK-OEt levels. Rat plasma sample preparation involved a simple protein precipitation procedure (100 μL plasma+250 μL acetonitrile containing 25 ng/mL of the internal standard, DCUK-OMe). After vortexing (5 minutes) and centrifugation (5000 g, 5 minutes, +4° C.), 200 μL of the supernatant was injected into the HPLC system and loaded onto the extraction column. Frozen brain tissue samples (about 0.5 g) were homogenized over liquid nitrogen using a mortar and pestle. The homogenized powder was transferred into the tubes containing 1.5 mL ice-cold 100% acetonitrile and 25 ng/mL DCUK-OMe (used as an internal standard). Following procedures were all performed on ice or at 4° C. The samples were further homogenized using an electric homogenizer for 30 seconds at 4° C. Subsequently, the tubes were placed into the ultrasonic bath for 30 minutes (on ice), and centrifuged afterwards at 1300 g for 10 minutes at 4° C. The supernatant was transferred into the HPLC tube. The pellet was re-extracted with 500 μL MeOH (containing 25 ng/mL DCUK-OMe), sonicated for 10 minutes, and centrifuged (10 minutes at 1300 g, 4° C.). The MeOH phase was combined with the acetonitrile solution from the first extraction step and 500 μL of the solution was directly injected into the HPLC system.
The two HPLC systems consisted of the following components (all series 1100, Agilent Technologies, Palo Alto, USA): HPLC I: G1312A binary pump, G1379A degasser; HPLC II: G1312A binary pump, and a G1316A column thermostat. A Sciex API 4000 triple-stage quadrupole mass spectrometer was used as detector (Applied Biosystems, Foster City, USA). The HPLC systems were connected via a 6-port column switching valve mounted on a step motor. The HPLC's switching valve and the mass spectrometer were controlled by the Analyst software (version 1.3.1., Applied Biosystems). […]

[3] = Solubility limit in aqueous assay buffers; assay type: physicochemical; conditions: aqueous assay buffers (incubation or bath solutions), aqueous buffer, kinetic from dmso stock, DMSO 0.2 to 1%, read-out: concentrations that could not be tested due to limited solubility in aqueous buffers
Description: Drugs. For all in vitro assays, stock solutions of DCUKA or DCUK-OMe were prepared fresh daily in dimethylsulfoxide (DMSO) then diluted into the incubation or bath solutions with sonication to the desired concentrations for experiments. Due to their limited solubility in aqueous buffers, DCUKA concentrations >300 μM and DCUK-OMe concentrations >100 μM could not be tested. In those assays where high ionic strength buffers were used, i.e., [^3H]batrachiotoxin (BTX) binding in depolarized synaptosomes, concentrations >50 μM could not be tested. The final concentration of DMSO in the assays ranged from 0.2 to 1%. In all assays, drug effects were compared with effects measured in the presence of the identical concentration of DMSO without drug.

T1 sequence (P21554 whole entry, species assumed): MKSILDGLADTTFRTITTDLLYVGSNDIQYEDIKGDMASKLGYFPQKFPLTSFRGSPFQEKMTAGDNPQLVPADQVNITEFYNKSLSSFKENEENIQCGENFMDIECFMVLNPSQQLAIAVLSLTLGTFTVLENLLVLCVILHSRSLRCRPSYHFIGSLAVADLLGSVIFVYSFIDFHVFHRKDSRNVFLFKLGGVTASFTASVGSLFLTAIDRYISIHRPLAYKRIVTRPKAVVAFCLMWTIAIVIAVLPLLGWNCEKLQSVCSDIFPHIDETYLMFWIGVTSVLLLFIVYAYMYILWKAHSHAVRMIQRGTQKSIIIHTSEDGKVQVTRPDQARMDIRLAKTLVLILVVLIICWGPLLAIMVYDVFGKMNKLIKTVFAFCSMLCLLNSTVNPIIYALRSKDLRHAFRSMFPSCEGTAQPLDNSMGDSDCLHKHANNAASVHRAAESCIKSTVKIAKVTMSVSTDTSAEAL

| time at which plasma level fell to low levels [2] | time of peak brain level ([2]; analyte = label) | SMILES | Ki [1] [µM] | time of peak plasma level ([2]; analyte = label) | solubility [3] [µM] | brain level at about 8 hours post-administration ([2]; analyte DCUKA) |
| --- | --- | --- | --- | --- | --- | --- |
| about 2 hours | about 1 hour | CCOC(=O)c1cc(NC(=O)N(c2ccccc2)c2ccccc2)c2c(Cl)cc(Cl)cc2n1 [DCUK-OEt, N,N-diphenyl-4-ureido-5,7-dichloro-2-carboxy quinoline ethyl ester] | 7.4 | about 1 hour | – | – |
| – | – | O=C(O)c1cc(NC(=O)N(c2ccccc2)c2ccccc2)c2c(Cl)cc(Cl)cc2n1 [DCUKA, N,N-diphenyl-4-ureido-5,7-dichloro-2-carboxyquinoline] | > 10 | about 2 hour | > 300 | still elevated |
